The source made the active and inactive calls. No cut-off for these calls is given here.
Key:
[1] = tested on: Mammalian orthoreovirus 1; assay: Antiviral activity against Reovirus 1 infected in Vero cells assessed as inhibition of virus-induced cytopathic effect; assay type: functional, organism-based
Human respirovirus 3 = assay: Antiviral activity against Human parainfluenza virus 3 infected in Vero cells assessed as inhibition of virus-induced cytopathic effect; assay type: functional, organism-based
[2] = tested on: Vesicular stomatitis virus; assay: Antiviral activity against Vesicular stomatitis virus infected in HEL cells assessed as inhibition of virus-induced cytopathic effect; assay type: functional, organism-based
Vaccinia virus = assay: Antiviral activity against Vaccinia virus infected in HEL cells assessed as inhibition of virus-induced cytopathic effect; assay type: functional, organism-based; conditions: Orthopoxvirus vaccinia
Human alphaherpesvirus 2 = assay: Antiviral activity against Herpes simplex virus type-2 infected in HEL cells assessed as inhibition of virus-induced cytopathic effect; assay type: functional, organism-based
Human alphaherpesvirus 1 = assay: Antiviral activity against Herpes simplex virus type-1 infected in HEL cells assessed as inhibition of virus-induced cytopathic effect; assay type: functional, organism-based
L1210 [3] = assay: Cytostatic activity against mouse L1210 cells after 2 days by coulter counting analysis; assay type: functional, cell-based; conditions: L1210, 48 h
FM3A = assay: Cytostatic activity against mouse FM3A cells after 2 days by coulter counting analysis; assay type: functional, cell-based; conditions: 48 h
CCRF-CEM = assay: Cytostatic activity against human CEM cells after 3 days by coulter counting analysis; assay type: functional, cell-based; conditions: 72 h
HeLa [4] = assay: Cytostatic activity against human HeLa cells after 3 days by coulter counting analysis; assay type: functional, cell-based; conditions: 72 h
Punta Toro virus = assay: Antiviral activity against Punta Toro virus infected in Vero cells assessed as inhibition of virus-induced cytopathic effect; assay type: functional, organism-based
[5] = tested on: Vesicular stomatitis virus; assay: Antiviral activity against Vesicular stomatitis virus infected in HeLa cells assessed as inhibition of virus-induced cytopathic effect; assay type: functional, organism-based
[6] = tested on: Respiratory syncytial virus; assay: Antiviral activity against Respiratory syncytial virus infected in HeLa cells assessed as inhibition of virus-induced cytopathic effect; assay type: functional, organism-based
Sindbis virus = assay: Antiviral activity against Sindbis virus infected in Vero cells assessed as inhibition of virus-induced cytopathic effect; assay type: functional, organism-based
Coxsackievirus B4 [7] = assay: Antiviral activity against Human coxsackievirus B4 infected in Vero cells assessed as inhibition of virus-induced cytopathic effect; assay type: functional, organism-based
Coxsackievirus B4 [8] = assay: Antiviral activity against Human coxsackievirus B4 infected in HeLa cells assessed as inhibition of virus-induced cytopathic effect; assay type: functional, organism-based
L1210 [9] = assay: Cytostatic activity against mouse L1210 cells in presence of 20 uM thymidine; assay type: functional, cell-based
L1210 [10] = assay: Cytostatic activity against mouse L1210 cells in presence of 20 uM 2'-deoxyuridine; assay type: functional, cell-based
L1210 [11] = assay: Cytostatic activity against mouse L1210 cells in presence of 500 uM uridine; assay type: functional, cell-based
L1210 [12] = assay: Cytostatic activity against mouse L1210 cells in presence of 500 uM uracil; assay type: functional, cell-based
HeLa [13] = assay: Cytostatic activity against human HeLa cells in presence of 20 uM thymidine; assay type: functional, cell-based
HeLa [14] = assay: Cytostatic activity against human HeLa cells in presence of 20 uM 2'-deoxyuridine; assay type: functional, cell-based
HeLa [15] = assay: Cytostatic activity against human HeLa cells in presence of 500 uM uridine; assay type: functional, cell-based
HeLa [16] = assay: Cytostatic activity against human HeLa cells in presence of 500 uM uracil; assay type: functional, cell-based

Row | SMILES | Activity [1] | Activity (Human respirovirus 3) | Activity [2] | Activity (Vaccinia virus) | Activity (Human alphaherpesvirus 2) | Activity (Human alphaherpesvirus 1) | IC50 (L1210 [3]) [µM] | IC50 (FM3A) [µM] | IC50 (CCRF-CEM) [µM] | IC50 (HeLa [4]) [µM] | Activity (Punta Toro virus) | Activity [5] | Activity [6] | Activity (Sindbis virus) | Activity (Coxsackievirus B4 [7]) | Activity (Coxsackievirus B4 [8]) | further results
1 | C=C1[C@H](O)[C@H](O)CO[C@@H]1n1cc(C)c(O)nc1=O | inactive | inactive | inactive | inactive | inactive | inactive | 610 | 775 | ≥ 800 | ≥ 800 | inactive | inactive | inactive | inactive | inactive | inactive | 
2 | Cc1cn([C@H]2OCC=CC2=O)c(=O)nc1O | inactive | inactive | inactive | inactive | inactive | inactive | 34 | 77 | 104 | 34 | inactive | inactive | inactive | inactive | inactive | inactive | 
3 | O=c1[nH]c(=O)n([C@@H]2O[C@H](CO)[C@@H](O)[C@H]2O)cc1F [5-FLUOROURIDINE] | inactive | inactive | inactive | inactive | inactive | inactive | 0.014 | 0.014 |  |  | inactive | inactive | inactive | inactive | inactive | inactive | IC50 (L1210 [9]): 1200 nM; IC50 (L1210 [10]): 26 nM; IC50 (L1210 [11]): 720 nM; IC50 (L1210 [12]): 7.5 nM; IC50 (HeLa [13]): 17 nM; IC50 (HeLa [14]): 22 nM; IC50 (HeLa [15]): 1600 nM; IC50 (HeLa [16]): 16 nM
4 | O=C1C=CCO[C@@H]1n1cc(C(F)(F)F)c(O)nc1=O | inactive | inactive | inactive | inactive | inactive | inactive | 23 | 46 | 39 | 34 | inactive | inactive | inactive | inactive | inactive | inactive | 
5 | C=C1[C@H](O)[C@H](O)CO[C@@H]1n1ccc(O)nc1=O | inactive | inactive | inactive | inactive | inactive | inactive | > 800 | > 800 | > 800 | ≥ 800 | inactive | inactive | inactive | inactive | inactive | inactive | 
6 | O=C1C=CCO[C@@H]1n1ccc(O)nc1=O | inactive | inactive | inactive | inactive | inactive | inactive | 92 | 121 | 82 | 42 | inactive | inactive | inactive | inactive | inactive | inactive | 
7 | C=C1C=CCO[C@@H]1n1cc(C)c(O)nc1=O | inactive | inactive | inactive | inactive | inactive | inactive | 486 | ≥ 900 | 504 | 339 | inactive | inactive | inactive | inactive | inactive | inactive | 
8 | O=C(Nc1ccn([C@H]2OCC=CC2=O)c(=O)n1)c1ccccc1 | inactive | inactive | inactive | inactive | inactive | inactive | 28 | 62 | 46 | 72 | inactive | inactive | inactive | inactive | inactive | inactive | 
9 | C=C1C=CCO[C@@H]1n1ccc(N)nc1=O | inactive | inactive | inactive | inactive | inactive | inactive | 1390 | ≥ 1800 | 1550 | 990 | inactive | inactive | inactive | inactive | inactive | inactive | 
10 | C=C1C=CCO[C@@H]1n1ccc(NC(=O)c2ccccc2)nc1=O | inactive | inactive | inactive | inactive | inactive | inactive | 368 | 379 | 432 | 296 | inactive | inactive | inactive | inactive | inactive | inactive | 
11 | C=C1C=CCO[C@@H]1n1ccc(O)nc1=O | inactive | inactive | inactive | inactive | inactive | inactive | 549 | > 1000 | 450 | 760 | inactive | inactive | inactive | inactive | inactive | inactive | 

Reference: ChEMBL document CHEMBL1759968, “Synthesis and biological evaluation of unsaturated keto and exomethylene D-arabinopyranonucleoside analogs: novel 5-fluorouracil analogs that target thymidylate synthase” (Eur J Med Chem, 2011)
